Source: PubChem BioAssay (NCI)
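Growth conditions: 96-well plates. Treatment: test compound, 48 hours, 5 concentrations. Analysis: linear interpolation between bracketing concentrations; unreached endpoints set to highest concentration. Here, GI50 denotes the concentration required for 50% inhibition of growth. TGI is the concentration that stops growth completely.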

Experiments:
Test in all cases: NCI-60 cell line screen, 48 h
HOP-62 NSCLC = system: HOP-62 NSCLC
HCT-15 colon = system: HCT-15 colon
CCRF-CEM leukemia = system: CCRF-CEM leukemia
SK-OV-3 ovarian = system: SK-OV-3 ovarian
SF-539 CNS = system: SF-539 CNS
UO-31 renal = system: UO-31 renal
A498 renal = system: A498 renal
RXF 393 renal = system: RXF 393 renal
TK-10 renal = system: TK-10 renal
HCC-2998 colon = system: HCC-2998 colon

| SMILES | TGI (HOP-62 NSCLC) [µM] | TGI (HCT-15 colon) [µM] | TGI (CCRF-CEM leukemia) [µM] | TGI (SK-OV-3 ovarian) [µM] | TGI (SF-539 CNS) [µM] | TGI (UO-31 renal) [µM] | TGI (A498 renal) [µM] | TGI (RXF 393 renal) [µM] | TGI (TK-10 renal) [µM] | TGI (HCC-2998 colon) [µM] | GI50 (HOP-62 NSCLC) [µM] | GI50 (HCT-15 colon) [µM] | GI50 (SK-OV-3 ovarian) [µM] | GI50 (A498 renal) [µM] | GI50 (RXF 393 renal) [µM] | GI50 (SF-539 CNS) [µM] | GI50 (TK-10 renal) [µM] | GI50 (UO-31 renal) [µM] | GI50 (CCRF-CEM leukemia) [µM] | GI50 (HCC-2998 colon) [µM] |
| --- | --- | --- | --- | --- | --- | --- | --- | --- | --- | --- | --- | --- | --- | --- | --- | --- | --- | --- | --- | --- |
| COc1ccc(C(c2ccc(C(C)C)cc(=O)c2O)c2ccc3cccnc3c2O)cc1 (configuration not stated) | 2.29 | 14.5 | > 100 | 16.4 | 2.29 | 1.78 | – | – | – | – | – | – | – | – | – | – | – | – | – | – |
| Cc1oc2c(C)c(O)c3c(c2c1C1(C)OCCO1)C(=O)C=C(Cl)C3=O | > 100 | > 100 | > 100 | – | > 100 | > 100 | > 100 | > 100 | > 100 | – | – | – | – | – | – | – | – | – | – | – |
| CC(=O)NC(CCCCNC(=O)N(CCCl)N=O)C(=O)NCc1ccccc1 (configuration not stated) | > 100 | > 100 | > 100 | – | > 100 | > 100 | – | – | – | > 100 | – | – | – | – | – | – | – | – | – | – |
| NC(CNO)C(=O)O (configuration not stated) | > 100 | > 100 | – | > 100 | > 100 | > 100 | > 100 | > 100 | > 100 | – | – | – | – | – | – | – | – | – | – | – |
| COc1cc2nc(Sc3c([N+](=O)[O-])ncn3C)[nH]c2cc1OC | > 100 | > 100 | – | > 100 | 47.5 | > 100 | > 100 | 43.9 | 67.3 | > 100 | – | – | – | – | – | – | – | – | – | – |
| CCOC(=O)c1c(-c2ccccc2)[n+](=O)c2ccc(Cl)cc2n1[O-] | 20.8 | 13.6 | – | > 100 | 13.1 | 3.69 | 26.2 | 49.5 | 23.6 | – | 8.64 | 3.89 | 15.5 | 12.7 | 19.3 | 2.97 | 4.55 | 1.92 | – | – |
| COc1ccc2c(c1)CCc1c(-c3noc4c3CCc3cc(OC)ccc3-4)noc1-2 | > 100 | > 100 | – | > 100 | > 100 | > 100 | > 100 | > 100 | > 100 | > 100 | – | – | – | – | – | – | – | – | – | – |
| Nc1ncnc2c1nc(-c1ccccc1)n2C1OC(CO)C(O)C1O (configuration not stated) | > 100 | > 100 | – | > 100 | > 100 | > 100 | > 100 | > 100 | > 100 | > 100 | – | – | – | – | – | – | – | – | – | – |
| COc1ccc(NC(=O)C(=O)C2CNC(=O)NC2=O)c(OC)c1 (configuration not stated) | > 100 | > 100 | > 100 | > 100 | > 100 | > 100 | – | > 100 | > 100 | > 100 | – | – | – | – | – | – | – | – | – | – |
| COc1cc(C#N)cc(OC)c1OCCOCCOc1c(OC)cc(C#N)cc1OC | > 100 | > 100 | > 100 | > 100 | > 100 | > 100 | > 100 | – | > 100 | > 100 | > 100 | > 100 | > 100 | 35.4 | – | > 100 | > 100 | 26.4 | 38.8 | > 100 |
| CN1CCC[C@@H]1CCO[C@](C)(c1ccccc1)c1ccc(Cl)cc1 | 23.1 | 16 | – | 17.8 | 23.7 | 16.3 | 23 | 13.9 | 23.3 | 13.7 | 10.1 | 4.4 | 4.46 | 10.7 | 3.48 | 9.94 | 10.7 | 2.83 | – | 3.41 |
| CCOc1ccccc1N=Nc1c(-c2ccccc2)nn(C(=O)CC(=O)Nc2cccc(Cl)c2)c1-c1ccccc1 | > 100 | – | > 100 | > 100 | > 100 | > 100 | – | > 100 | > 100 | > 100 | – | – | – | – | – | – | – | – | – | – |
| CC(C)NCC(O)COC(=O)c1cccs1 (configuration not stated) | > 100 | > 100 | > 100 | > 100 | – | > 100 | – | > 100 | > 100 | > 100 | – | – | – | – | – | – | – | – | – | – |
| COC(=O)C1=CN=C(C(=O)OC)NN1 | > 100 | > 100 | > 100 | > 100 | > 100 | > 100 | – | > 100 | > 100 | – | – | – | – | – | – | – | – | – | – | – |
| CCc1ccccc1NC(=O)CCc1n[nH]c(=S)o1 | > 100 | 36.8 | > 100 | > 100 | > 100 | > 100 | > 100 | – | > 100 | > 100 | – | – | – | – | – | – | – | – | – | – |
| C/C(CC(=O)NNc1ccc([N+](=O)[O-])cc1)=N\Nc1ccc([N+](=O)[O-])cc1 | 38 | > 100 | > 100 | – | > 100 | > 100 | 47.2 | 46.5 | 35 | > 100 | 14.2 | 19.7 | – | 7.84 | 17.7 | 5.97 | 13.4 | 1.88 | 4.76 | 6.4 |
